Laboratory results taken from US12351561B2, “Crystalline (2S,4R)-5-(5'-chloro-2'-fluoro-[1,1'-biphenyl]-4-yl)-2-(ethoxymethyl)-4-(3-hydroxyisoxazole-5-carboxamido)-2-methylpentanoic acid and uses thereof” (THERAVANCE BIOPHARMA R&D IP, LLC, priority 2016, dated 2025).

Columns and labels:
[1] = Assay 1: IV/PO pharmacokinetic study in dogs; type: in vivo, male beagle dogs; details: dog; for bioavailability / AUC(0-t): plasma; for bioavailability: po; for AUC(0-t): read-out: AUClast Mean
Description: (§1) Each rat, dog or monkey PK study began with formulation of the test compound. Appropriate masses of each test compound were added into a volume of vehicle (e.g. 5% sodium bicarbonate, 5% dextrose in H2O) such that the final concentration of each compound was appropriate to be dosed. Although a homogenous suspension were acceptable for oral dosing, intravenous dosing solutions were sterile-filtered (0.2 μm) prior to dosing to ensure no particulates were administered.
In the dog study, male non-naïve beagle dogs (3 per route) housed at Agilux Laboratories (Worcester, MA) and weighing between 9-14 kg received either an oral or intravenous dose. Oral doses were delivered into the stomach using a syringe and gavage tube followed by a water flush of approximately 10 mL. Oral doses were administered at a volume of 2 mL/kg. Intravenous doses were administered via a percutaneous catheter placed in sphenous vein followed by a saline flush of approximately 3 mL. Intravenous doses were administered at a volume of 0.5 mL/kg. […] Serial blood samples were harvested via direct venipuncture at 3 min, 15 min, 30 min, 1 h, 2 h, 4 h, 6 h, 8 h, 12 h, and 24 h post-dose. All samples were collected manually into microtainer tubes containing EDTA as the anticoagulant and were processed to plasma by refrigerated centrifugation.
(§2) Plasma concentrations of Compound I were determined by LC/MS/MS. Plasma study samples were vortexed and placed in a 96-well plate. The samples were extracted with 200 μL of acetonitrile with an internal standard. The extract was centrifuged for 10 minutes at 2809 RPM and 50 μL supernatant was mixed with 200 μL 0.2% formic acid in water. Samples (10-15 μL) were injected on a ThermoFisher HyPURITY™ (C18 50×2.1 mm) column with a flow rate of 0.35 mL/min. Mobile phase A consisted of water: acetonitrile: formic acid (95:5:0.1, v:v:v) and Mobile phase B consisted of methanol: acetonitrile: formic acid (50:50:0.1, v:v:v) (dog). Mobile phase A consisted of 0.2% formic acid in water and mobile phase B consisted of 0.2% formic acid in acetonitrile (rat and monkey). Pharmacokinetic parameters of Compound I were determined by non-compartmental analysis (Model 201 and Model 200 for IV and PO administration, respectively) using Phoenix WinNonlin Version 6.3 (Certara, Sunnyvale, CA) and using individual plasma concentration time profiles from 3 animals per treatment group.
(§3) Plasma clearance was determined from the intravenous arm of the study, and represents the rate at which plasma is cleared of drug. It is equal to the dose divided by the area under the plasma concentration-time curve. In addition to plasma clearance, it is also essential for an orally administered drug to reach efficacious systemic levels following oral delivery. Oral bioavailability is a measurement of plasma exposures following oral administration relative to exposures following intravenous administration.

[2] = Assay 1: IV/PO pharmacokinetic study in rats; type: in vivo, male Sprague-Dawley rats; details: rat; for AUC(0-t) / bioavailability: plasma; for AUC(0-t): read-out: AUClast Mean; for bioavailability: po
Description: as §1
In the rat study, pre-cannulated male Sprague-Dawley rats (3 per route) were obtained from Harlan Laboratories or Charles Rivers Laboratories. Rats received either a oral dose delivered into the stomach using a syringe and gavage tube or a intravenous (via lateral tail vein) dose of the dosing solution. The final dose was 0.5 mg/kg. Serial blood samples were harvested via the cannula implanted in the jugular vein at 3 min, 15 min, 30 min, 1 h, 2 h, 4 h, 6 h, and 24 h post-dose. Sampling was performed either manually or using automated blood samplers. Samples were collected into microtainer tubes containing EDTA as the anticoagulant and were processed to plasma by refrigerated centrifugation.
as §2, §3

[3] = Assay 3: Phase 1 single-ascending dose study, safety and tolerability; type: in vivo, human; details: healthy volunteers, single doses up to 600 mg
Description: A Phase 1 single-ascending dose (SAD) clinical trial of Compound I′ (Form I), which converts to or dissolves to provide its soluble form Compound I in the body, was conducted in order to assess neprilysin inhibition for the treatment of a range of cardiovascular and renal diseases, including, e.g., chronic kidney disease, diabetic nephropathy, acute and chronic heart failure, heart failure with reduced ejection fraction, heart failure with preserved ejection fraction, post-myocardial infarction asymptomatic left ventricular dysfunction (post-MI asymptomatic LVD), subacute heart failure and resistant and isolated systolic hypertension. Safety and tolerability, pharmacokinetic (support for QD/BID dosing and non-renal excretion), pharmacodynamic (test for target engagement biomarkers cGMP and ANP), food effect, and absolute oral bioavailability and renal elimination using a ^14C intravenous microtracer, inter alia, were tested.
The Phase 1 study was a double-blind, randomized placebo-controlled single ascending dose study in healthy male and female volunteers randomized in a 4:1 ratio. The study enrolled 56 healthy volunteers over multiple weeks for the ascending-dose portion, which included cohorts (n=10/cohort of 8 active and 2 placebo) administered single ascending doses of 50 mg, 100 mg, 200 mg, 400 mg and 600 mg. […]

[4] = Assay 4: Phase 1 multiple-ascending dose study, renal elimination; type: in vivo; details: human, after multiple dosing, Day 1 and Day 14, all subjects
Description: (§4) A Phase 1 multiple-ascending dose (MAD) clinical trial of Compound I′ (Form I) was conducted in order to further evaluate the safety, tolerability, pharmacokinetics of Compound I and its metabolite, pharmacodynamics of Compound I, food effect, absolute oral bioavailability and renal elimination of multiple ascending oral doses of Compound I′ in healthy adult and elderly subjects. As discussed below, the reported data confirms the results stemming from the SAD clinical trial.
(§5) The Phase 1 study was a double-blind, randomized placebo-controlled multiple ascending dose study in healthy male and female volunteers randomized in a 4:1 ratio. The study enrolled 50 healthy adult (19-55 years old) and elderly (65-80 years old) volunteers over multiple weeks for the ascending-dose portion, which included cohorts (n=10/cohort of 8 active and 2 placebo) administered (1) ascending doses of 50 mg, 100 mg, and 200 mg, (2) a dose of 10 mg studied in parallel with 200 mg for PK/PK, and (3) a dose of 100 mg for one elderly cohort. […] Additionally, renal elimination of Compound I was neglible after multiple dosing, e.g., <1% was observed on Day 1 and Day 14 for all subjects.

[5] = Assay 4: Phase 1 multiple-ascending dose study, safety and tolerability; type: in vivo, human; details: healthy adult and elderly subjects, multiple oral doses up to 14 days
Description: as §4, §5

CCOC[C@](C)(C[C@@H](Cc1ccc(-c2cc(Cl)ccc2F)cc1)NC(=O)c1cc(O)no1)C(=O)O [Compound I, (2S,4R)-5-(5′-Chloro-2′-fluoro-[1,1′-biphenyl]-4-yl)-2-(ethoxymethyl)-4-(3-hydroxyisoxazole-5-carboxamido)-2-methylpentanoic Acid]
CLlast Mean ([1]; PO, 0.1 mg/kg): 47.2 mL/min/kg | bioavailability ([1]; higher doses (100-300 mg/kg), data not shown, read-out: mean bioavailability): 7 to 13% | bioavailability ([1]; male, beagle, 0.1 mg/kg, read-out: Oral Bioavailability Mean): ~17% | AUC(0-t) ([1]; male, beagle, IV, 0.1 mg/kg): 210 ng·h/mL | AUC(0-t) ([1]; male, beagle, PO, 0.1 mg/kg): 34.9 ng·h/mL | AUC(0-t) ([2]; male, Sprague-Dawley, IV, 0.5 mg/kg): 390 ng·h/mL | AUC(0-t) ([2]; male, Sprague-Dawley, PO, 0.5 mg/kg): 130 ng·h/mL | bioavailability ([2]; male, Sprague-Dawley, 0.5 mg/kg, read-out: Oral Bioavailability Mean): ~33% | CLlast Mean ([2]; IV, 0.5 mg/kg): 20.3 mL/min/kg | CLlast Mean ([2]; PO, 0.5 mg/kg): 50.2 mL/min/kg | bioavailability ([2]; higher doses (30-1000 mg/kg), data not shown, read-out: mean bioavailability): 49 to 79% | tolerability [3]: well-tolerated | renal elimination [4]: < 1% | tolerability [5]: generally well-tolerated
